According to ChEMBL document CHEMBL5252531, “2015 Philip S. Portoghese Medicinal Chemistry Lectureship. Curing Hepatitis C Virus Infection with Direct-Acting Antiviral Agents: The Arc of a Medicinal Chemistry Triumph” (J Med Chem, 2016):
pEC50, pIC50: −log10 of the molar value.

Experiments:
[1] = test system: Human immunodeficiency virus 1; test: Antiviral activity against HIV-1; assay type: functional, organism-based
[2] = test system: Huh-7; test: Cytotoxicity against human Huh-7 cells assessed as reduction in cell viability […] after 72 hrs by alamar blue assay; assay type: functional
[3] = Cytotoxicity against human HEK293 cells assessed as reduction in cell viability […] after 72 hrs by alamar blue assay; assay type: toxicity, cell-based
[4] = Cytotoxicity against African green monkey Vero cells assessed as reduction in cell viability […] after 72 hrs by alamar blue assay; assay type: toxicity, cell-based; settings: chlorocebus sabaeus
[5] = test system: Bovine viral diarrhea virus 1; test: Antiviral activity against Bovine viral diarrhea virus 1; assay type: functional, organism-based; settings: Bovine viral diarrhea virus isolates and strains
[6] = test system: Respiratory syncytial virus; test: Antiviral activity against RSV; assay type: functional, organism-based; settings: human respiratory syncytial virus
[7] = test system: Bovine viral diarrhea virus 1; test: Antiviral activity against Bovine viral diarrhea virus 1 infected in MDBK cells assessed as reduction in viral replication; assay type: functional, organism-based; settings: Bovine viral diarrhea virus isolates and strains
[8] = Cytotoxicity against human MRC5 cells assessed as reduction in cell viability measured after 72 hrs by alamar blue assay; assay type: toxicity, cell-based
[9] = test system: Hepatitis C virus; test: Antiviral activity against HCV GT1b-genotype assessed as inhibition of viral replication; assay type: functional, organism-based, Hepacivirus hominis
[10] = Cytotoxicity against human MT2 cells assessed as cell viability measured after 72 hrs by MTT assay; assay type: toxicity, cell-based
[11] = test system: Human rhinovirus sp.; test: Antiviral activity against HRV; assay type: functional, organism-based
[12] = test system: HeLa; test: Cytotoxicity against human HeLa cells assessed as reduction in cell viability measured after 72 hrs by Alamar blue assay; assay type: functional
[13] = test system: Hepatitis C virus; test: Antiviral activity against HCV genotype 1b expressing NS5B S365A mutant variant; assay type: functional, organism-based, Hepacivirus hominis
[14] = test system: Hepatitis C virus; test: Antiviral activity against HCV genotype 1b; assay type: functional, organism-based, Hepacivirus hominis
[15] = test system: Hepatitis C virus; test: Antiviral activity against HCV genotype 1a; assay type: functional, organism-based, Hepacivirus hominis
[16] = Oral bioavailability in rat at 3 mg/kg; assay type: ADME, organism-based; settings: in vivo
[17] = in vivo; settings: beagle, dog, iv, 1 mg/kg
Description: Half life in Beagle dog at 1 mg/kg, iv measured after 24 hrs by HPLC method

[18] = in vivo; settings: FVB, mouse, po, 5 mg/kg
[19] = test system: Hepatitis C virus; test: Antiviral activity against HCV genotype 4a; assay type: functional, organism-based, Hepacivirus hominis
[20] = test system: Hepatitis C virus; test: Inhibition of HCV genotype 2a; assay type: functional, organism-based, Hepacivirus hominis
[21] = test system: Hepatitis C virus; test: Antiviral activity against HCV genotype 3a; assay type: functional, organism-based, Hepacivirus hominis
[22] = Drug concentration in Beagle dog liver at 6 mg/kg, po measured after 24 hrs by LC-MS/MS analysis; assay type: ADME, organism-based, Canis lupus familiaris; settings: read-out: Ct
[23] = test system: Hepatitis C virus; test: Antiviral activity against HCV genotype 2a; assay type: functional, organism-based, Hepacivirus hominis
[24] = test system: Hepatitis C virus; test: Antiviral activity against Hepatitis C virus infected RNA assessed as reduction in viral replication at 600 mg, po BID measured for 3 days; assay type: functional, Hepacivirus hominis; settings: time 3 day
[25] = in vivo; settings: cynomolgus monkey, iv, 1 mg/kg
Description: Half life in cynomolgus monkey at 1 mg/kg, iv measured after 24 hrs by HPLC method

[26] = in vivo; settings: FVB, mouse, iv, 2 mg/kg
Description: Half life in FVB mouse at 2 mg/kg, iv measured after 24 hrs by HPLC method

[27] = in vivo; settings: Sprague-Dawley, rat, iv, 5 mg/kg
Description: Half life in Sprague-Dawley rat at 5 mg/kg, iv measured after 24 hrs by HPLC method

[28] = Drug concentration in Sprague-Dawley liver at 15 mg/kg, po measured after 24 hrs by LC-MS/MS analysis; assay type: ADME, organism-based; settings: rat, read-out: Ct
[29] = test system: Hepatitis C virus; test: Inhibition of HCV genotype 3a; assay type: functional, organism-based, Hepacivirus hominis
[30] = Drug concentration in cynomolgus monkey liver at 10 mg/kg, po measured after 24 hrs by LC-MS/MS analysis; assay type: ADME, organism-based, Macaca fascicularis; settings: read-out: Ct
[31] = test system: Hepatitis C virus; test: Inhibition of HCV genotype 2b; assay type: functional, organism-based, Hepacivirus hominis
[32] = Drug concentration in FVB mouse liver at 5 mg/kg, po measured after 24 hrs by LC-MS/MS analysis; assay type: ADME, organism-based; settings: read-out: Ct
[33] = test system: Hepatitis C virus; test: Inhibition of HCV genotype 5a; assay type: functional, organism-based, Hepacivirus hominis
[34] = Drug concentration in Sprague-Dawley rat plasma at 15 mg/kg, po measured after 24 hrs by LC-MS/MS analysis; assay type: ADME, organism-based
[35] = AUC in Beagle dog at 3 mg/kg, po measured after 24 hrs by LC-MS/MS analysis; assay type: ADME, organism-based, Canis lupus familiaris; set-up: dose 3 mg/kg, time 24 hrs, route po; settings: in vivo
[36] = in vivo; settings: male, Sprague-Dawley, rat, po, 15 mg/kg
[37] = test system: Hepatitis C virus; test: Antiviral activity against Hepatitis C virus infected RNA assessed as reduction in viral replication at 400 mg, po BID measured for 3 days; assay type: functional, Hepacivirus hominis; settings: time 3 day
[38] = test system: Hepatitis C virus; test: Inhibition of HCV genotype 6a; assay type: functional, organism-based, Hepacivirus hominis
[39] = AUC in cynomolgus monkey at 3mg/kg, po measured after 24 hrs by LC-MS/MS analysis; assay type: ADME, organism-based, Macaca fascicularis; set-up: time 24 hrs, route po; settings: in vivo
[40] = test system: Hepatitis C virus; test: Inhibition of HCV genotype 1b; assay type: functional, organism-based, Hepacivirus hominis
[41] = AUC in FVB mouse at 5 mg/kg, po measured after 24 hrs by LC-MS/MS analysis; assay type: ADME, organism-based; set-up: dose 5 mg/kg, time 24 hrs, route po; settings: in vivo
[42] = in vivo; settings: cynomolgus monkey, po, 3 mg/kg
[43] = Drug concentration in Beagle dog plasma at 6 mg/kg, po measured after 24 hrs by LC-MS/MS analysis; assay type: ADME, organism-based, Canis lupus familiaris
[44] = test system: Hepatitis C virus; test: Inhibition of HCV genotype 1a; assay type: functional, organism-based, Hepacivirus hominis
[45] = AUC in Sprague-Dawley rat at 15 mg/kg, po measured after 24 hrs by LC-MS/MS analysis; assay type: ADME, organism-based; set-up: dose 15 mg/kg, time 24 hrs, route po; settings: in vivo
[46] = test system: Hepatitis C virus; test: Inhibition of HCV genotype 4a; assay type: functional, organism-based, Hepacivirus hominis
[47] = test system: Hepatitis C virus; test: Antiviral activity against Hepatitis C virus infected RNA assessed as reduction in viral replication at 200 mg, po BID measured for 3 days; assay type: functional, Hepacivirus hominis; settings: time 3 day
[48] = test system: Hepatitis C virus; test: Antiviral activity against HCV genotype 1b by replicon assay; assay type: functional, organism-based, Hepacivirus hominis

## C[C@H](NC(=O)OCc1ccccc1)C(=O)Nc1ccc(C2S/C(=N\c3cccc(F)c3)N(Cc3ccco3)C2=O)cc1 (some centres not stated)
[1]
  pEC50: 4.39
[2]
  CC50: > 100000 nM
[3]
  CC50 at 72 h: > 50000 nM
[4]
  CC50 at 72 h: > 150000 nM
[5]
  pEC50: 4.77
[6]
  pEC50: 4.64
[7]
  pEC50: 4.62
[8]
  CC50 at 72 h: 41000 nM
[9]
  pEC50: 6.24
[10]
  CC50 at 72 h: 23000 nM
[11]
  pEC50: < 4.00
[12]
  CC50: > 100000 nM

## O=C(O)/C=C/c1ccc(NC(=O)C2(NC(=O)c3ccc4c(C5CCCCC5)c5n(c4c3)CC(=O)Nc3ccccc3-5)CCCC2)cc1
[13]
  pEC50: 8.10

## O=C1Cn2c(c(C3CCCCC3)c3ccc(C(=O)O)cc32)-c2ccccc2N1
[14]
  pEC50: > 8.00
[13]
  pEC50: 6.77
[15]
  pEC50: > 8.00
[16]
  bioavailability: 17%

## C=C[C@@H]1C[C@]1(NC(=O)[C@@H]1C[C@@H](Oc2ncc(OC)c3ccc(Cl)cc23)CN1C(=O)[C@@H](NC(=O)OC(C)(C)C)C(C)(C)C)C(=O)NS(=O)(=O)C1CC1
[17]
  half-life at 24 h: 1 h
[18]
  bioavailability: 28%
[19]
  pEC50: 8.74
[20]
  pIC50: 7.82
[21]
  pEC50: 5.93
[22]
  concentration at 24 h: 2500 nM
[23]
  pEC50: 6.64
[24]
  Activity: 2.84 log10 IU/mL
[25]
  half-life at 24 h: 1.3 h
[26]
  half-life at 24 h: 4.6 h
[27]
  half-life at 24 h: 4.2 h
[28]
  concentration at 24 h: 1200 nM
[14]
  pEC50: 8.92
[29]
  pIC50: 6.49
[30]
  concentration at 24 h: 440 nM
[31]
  pIC50: 7.11
[32]
  concentration at 24 h: 710 nM
[33]
  pIC50: 8.77
[34]
  concentration at 24 h: 40 nM
[35]
  AUC at 24 h: 2.2 µM·h
[36]
  bioavailability: 14%
[37]
  Activity: 3.57 log10 IU/mL
[38]
  pIC50: 9.05
[39]
  AUC at 24 h: 0.41 µM·h
[40]
  pIC50: 9.52
[41]
  AUC at 24 h: 0.54 µM·h
[42]
  bioavailability: 11%
[43]
  concentration at 24 h: 6 nM
[44]
  pIC50: 9.15
[45]
  AUC at 24 h: 1 µM·h
[46]
  pIC50: 8.80
[47]
  Activity: 3.09 log10 IU/mL

## O=C(Nc1ccc(/C=C/c2ccc(NC(=O)[C@@H]3CCCN3C(=O)CC3CC3)cc2)cc1)[C@@H]1CCCN1C(=O)CC1CC1
[14]
  pEC50: 7.21

## C=C[C@@H]1C[C@]1(NC(=O)[C@@H]1C[C@@H](Oc2cc(-c3ccccc3)nc3cc(OC)ccc23)CN1C(=O)[C@@H](NC(=O)OC(C)(C)C)C(C)(C)C)C(=O)O
[48]
  pEC50: 6.26
[44]
  pIC50: 7.27
